We go through four molecules from patent publication US20210214376A1, “HALOGENATED BIOTIN-MODIFIED DIMER AND USE THEREOF” (The University of Tokyo, priority 2018, published 2021).

For one experiment, the system named is Herceptin-V2122. In words: Binding assay of astatine-labeled Psyche B and Herceptin-Cupid using Ni-NTA magnetic beads. The following applies: Herceptin-V2122 solution versus PBS control; 5.8 kBq; FIG. 5. The method, then: In order to confirm whether or not astatine-labeled Psyche B has binding ability to Cupid, a binding assay was carried out using Herceptin-Cupid and Ni-NTA magnetic beads (manufactured by Thermo) that bind to a 6×His-tag added to Herceptin-Cupid. Psyche B-At211 used herein was prepared according to Example 1(4), whereas Herceptin-Cupid was prepared according to the method described in Japanese Patent Application 2018-247363, as described above. The specific assay method is as follows.
That is, 4 μL of Herceptin-V2122 solution or PBS used as a control was dispensed into a 1.5-mL tube. Into the tube, 10 μL (corresponding to 5.8 kBq) of Psyche-At211 was added, and the obtained mixture was then incubated at room temperature for 5 minutes. Subsequently, 10 μL of Ni-NTA magnetic beads equilibrated with PBS were added to the reaction mixture, and the thus obtained mixture was then incubated at room temperature for 5 minutes. Thereafter, the beads were precipitated and immobilized by using a magnet, and a supernatant was then recovered. The supernatant was washed with 100 μL of PBS twice, and the radiation dose was then counted using a gamma counter. The results are shown in the graph of FIG. 5.

For experiment [1], the system named is HER2-positive SKOV3 cells. In words: Binding of astatine-labeled Psyche B to Herceptin-V2122 pre-bound to SKOV3 cells. The following applies: 10 kBq/tube; Herceptin-V2122 versus negative control CEA-V2122; FIG. 6. It is filed as cell-based. The protocol:
(§1) Whether or not astatine-labeled Psyche B has binding ability to Herceptin-V2122, which had previously been bound to HER2-positive SKOV3 cells, was confirmed. As a negative control, CEA-V2122 was used. Psyche B-At211 used herein was prepared according to Example 1(4), whereas Herceptin-V2122 and CEA-V2122 were prepared according to the method described in Japanese Patent Application 2018-247363, as described above. The specific assay method is as follows.
(§2) Four 1.5-mL tubes were prepared, and the cells were then dispersed into each tube to a cell density of 0.875×10^6 cells/tube. Herceptin-V2122 was added to two tubes to result in N=2, whereas CEA-V2122 was added to the remaining two tubes. Subsequently, incubation was carried out on ice for 1 hour, and astatine-labeled Psyche B was then added to the resultant to 10 kBq/tube. Thereafter, the obtained mixture was incubated at room temperature for 30 minutes, while shaking. Finally, the cells were precipitated by centrifugation, and a supernatant was then recovered. The supernatant was washed with PBS twice, and the radiation dose was then counted using a gamma counter. The results are shown in the graph of FIG. 6.

Experiment [2] has as its target T1, CEA-V2122 (Streptomyces avidinii, UniProt P22629, E125D/E140N/N47D/N73G/R108K/R127K/S51D/S69N/Y107S/Y46S).
T1 construct: At the C-terminus a 6xHis tag; The expressed gene carries a pelB signal
Put plainly: Analysis of affinity of CEA-V2122 for Psyche B-iodine and Psyche P-iodine (Biacore T200, Single-Cycle Kinetics). It is filed as binding. The conditions noted are these: for kon: read-out: Ka. The source says: (§3) The data regarding the affinity of CEA-V2122 for Psyche B-iodine and for Psyche P-iodine were obtained in accordance with the description of Japanese Patent Application 2018-247363. Briefly stating, using an amine coupling kit (GE Healthcare Life Sciences), Sensor Chip CM5 (GE Healthcare Life Science) was set to be a target value that was 5000 RU, and the purified CEA-V2122 was immobilized. With regard to the concentration of the analyte, 5 types of two-fold serial dilutions from 1E-08 M to 6.25E-10 M were used. Biacore T200 (GE Healthcare Life Sciences) was used, the measurement temperature was set to be 25° C., and kinetics data were then obtained according to Single-Cycle Kinetics analysis. Using Biacore T200 Evaluation Software, version 2.0 (GE Healthcare Life Sciences), the obtained data were subjected to curve fitting in a Bivalent Analyze mode, and the evaluation value of each parameter was obtained. The dissociation constant KD is obtained according to Kd/Ka=KD.
Background: SPR reads the build-up and loss of mass on a sensor chip optically.

In experiment [3] the target is T2, CEA-V2122 (Streptomyces avidinii, UniProt P22629, Y46S/N47D/S51D/S69N/N73G/Y107S/R108K/E125D/R127K/E140N).
T2 construct: At the C-terminus a 6xHis tag; The expressed gene carries a pelB signal
T2 sequence (P22629 whole entry Y46S/N47D/S51D/S69N/N73G/Y107S/R108K/E125D/R127K/E140N, looked up): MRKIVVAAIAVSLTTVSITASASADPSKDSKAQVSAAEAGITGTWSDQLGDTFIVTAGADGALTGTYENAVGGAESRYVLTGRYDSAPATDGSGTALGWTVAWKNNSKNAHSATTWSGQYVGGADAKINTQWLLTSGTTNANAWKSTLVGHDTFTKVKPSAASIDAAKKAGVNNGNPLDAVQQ
The description is as above. In kind it is binding. The conditions noted are these: for bond with CEA-V2122: conclusion from Table 1; for koff: immobilized CEA-V2122, 25° C., Bivalent Analyze mode curve fitting.
Excerpt: as §3

The target in experiment [4] is T3, HER2 (ERBB2) on HER2-positive SKOV3 ovarian cancer cells (UniProt P04626 23-1255, limits assumed).
T3 construct: whole, on cells
Put plainly: astatine-211-labeled Psyche B counted by gamma counter on SKOV3 cells pre-incubated with the fusion protein; CEA-V2122 as negative control. The method, then: as §1
as §2, with “0.875×10⁶” for “0.875×10^6”, “6. The measurement results were Herceptin-V2122-dependent, and it was confirmed that Psyche B-At212 bound to the SKOV3 cells via Herceptin-V2122.” for “6.”

T1 sequence (P22629 whole entry E125D/E140N/N47D/N73G/R108K/R127K/S51D/S69N/Y107S/Y46S, looked up): as the sequence (P22629 whole entry Y46S/N47D/S51D/S69N/N73G/Y107S/R108K/E125D/R127K/E140N, looked up) above

On to `N=C1N[C@H]2[C@H](CS[C@H]2CCCCC(=O)NCCCCCC(=O)Nc2cc(NC(=O)CCCCCNC(=O)CCCC[C@@H]3SC[C@@H]4NC(=N)N[C@@H]43)cc(C(=O)NCCOCCOCCNC(=O)c3cccc([211At])c3)c2)N1.O=C(O)C(F)(F)F.O=C(O)C(F)(F)F` [Psyche B-At211, (3aS,3a′S,4S,4′S,6aR,6a′R)-4,4′-(((((5-((2-(2-(2-(3-(Astato-^211At)benzamido)ethoxy)ethoxy)ethyl)carbamoyl)-1,3-phenylene)bis(azanediyl))bis(6-oxohexane-6,1-diyl))bis(azanediyl))bis(5-oxopentane-5,1-diyl))bis(tetrahydro-1H-thieno[3,4-d]imidazol-2(3H)-iminium) 2,2,2-trifluoroacetate], for which the “precipitation with Ni-NTA magnetic beads, radiation dose by gamma counter” value with Herceptin-V2122 is “precipitated in a Herceptin-V2122 presence-dependent manner”. For the same molecule, the “binding to SKOV3 cells, radiation dose by gamma counter” value in experiment [1] is reported as “bound to the SKOV3 cells via Herceptin-V2122”.

In general, Kd refers to the free concentration of one partner at which half of the binding sites on the other are occupied at equilibrium, for simple one-to-one binding. Low readings indicate a tighter complex, high ones a looser complex. By koff is commonly meant a measure of how fast the partners let go of each other. Higher therefore signals a short-lived complex. As to `N=C1N[C@H]2[C@H](CS[C@H]2CCCCC(=O)NCCCCCC(=O)Nc2cc(NC(=O)CCCCCNC(=O)CCCC[C@@H]3SC[C@@H]4NC(=N)N[C@@H]43)cc(C(=O)NCCOCCOCCNC(=O)c3cccc(I)c3)c2)N1` [Psyche B-iodine, (3aS,3a′S,4S,4′S,6aR,6a′R)-4,4′-(((((5-((2-(2-(2-(3-Iodobenzamido)ethoxy)ethoxy)ethyl)carbamoyl)-1,3-phenylene)bis(azanediyl))bis(6-oxohexane-6,1-diyl))bis(azanediyl))bis(5-oxopentane-5,1-diyl))bis(tetrahydro-1H-thieno[3,4-d]imidazol-2(3H)-iminium) 2,2,2-trifluoroacetate], at CEA-V2122 [2], the Kd worked out at 0.022 nM and the kon came out at 29000 M⁻¹ s⁻¹. Besides, at CEA-V2122 [3], the “bond with CEA-V2122” value is listed as “form a stable bond with CEA-V2122” and the koff turned out to be 6.4e-07 s⁻¹.

Regarding `N=C1N[C@H]2[C@H](CS[C@H]2CCCCCOCCCCNC(=O)CN(CCOCCOCCNC(=O)c2cccc(I)c2)CC(=O)NCCCCOCCCCC[C@@H]2SC[C@@H]3NC(=N)N[C@@H]32)N1` [Psyche P-iodine, 2,2′-((2-(2-(2-(3-Iodobenzamido)ethoxy)ethoxy)ethyl)azanediyl)bis(N-(4-((5-((3aS,4S,6aR)-2-iminohexahydro-1H-thieno[3,4-d]imidazol-4-yl)pentyl)oxy)butyl)acetamide) 2,2,2-trifluoroacetate], at CEA-V2122 [2], the Kd amounted to 4.5 nM and the kon amounted to 6800 M⁻¹ s⁻¹. In addition, on CEA-V2122 [3], the “bond with CEA-V2122” value is reported as “form a stable bond with CEA-V2122” and the koff worked out at 3.1e-05 s⁻¹.

B1: CEA-V2122 (scFv)
scFv: QVKLEQSGAEVVKPGASVKLSCKASGFNIKDSYMHWLRQGPGQRLEWIGWIDPENGDTEYAPKFQGKATFTTDTSANTAYLGLSSLRPEDTAVYYCNEGTPTGPYYFDYWGQGTLVTVSSGGGGSGGGGSGGGGSENVLTQSPSSMSVSVGDRVNIACSASSSVPYMHWLQQKPGKSPKLLIYLTSNLASGVPSRFSGSGSGTDYSLTISSVQPEDAATYYCQQRSSYPLTFGGGTKLEIKGGGGSGGGGAEAGITGTWSDQLGDTFIVTAGADGALTGTYENAVGGAESRYVLTGRYDSAPATDGSGTALGWTVAWKNNSKNAHSATTWSGQYVGGADAKINTQWLLTSGTTNANAWKSTLVGHDTFTKVKPSAASHHHHHH
notes: Fusion of an anti-CEACAM5 scFv and mutant streptavidin V2122; also called scFv-V2122 (anti-CEACAM5)
As to B1, the binding result in experiment [4] is listed as “no binding”.
